Data reported in ChEMBL document CHEMBL5465560, “Selectivity Literature for EUbOPEN Chemogenomic Library” (2024).
One block for each molecule: values may come before it.

What was measured:
[1] = system: ALK tyrosine kinase receptor (Homo sapiens), Q9UM73 [F1174L]; test: (§1) Selectivity interaction (LanthaScreen Eu Kinase Binding Assay) EUB0001632a ALK; details: at 10 µM
[2] = system: ALK tyrosine kinase receptor (Homo sapiens), Q9UM73 [R1275Q]; test: as §1; details: at 10 µM
[3] = system: ALK tyrosine kinase receptor (Homo sapiens), Q9UM73 [L1196M]; test: as §1; details: at 10 µM
[4] = system: ALK tyrosine kinase receptor (Homo sapiens), Q9UM73 [C1156Y]; test: as §1; details: at 10 µM
[5] = target: T1, Serine/threonine-protein kinase NLK (Homo sapiens) (UniProt Q9UBE8); test: Selectivity interaction (Upstate Kinase Profiler service (Millipore)) EUB0000056c NLK; details: at 1 µM
T1 sequence (whole entry): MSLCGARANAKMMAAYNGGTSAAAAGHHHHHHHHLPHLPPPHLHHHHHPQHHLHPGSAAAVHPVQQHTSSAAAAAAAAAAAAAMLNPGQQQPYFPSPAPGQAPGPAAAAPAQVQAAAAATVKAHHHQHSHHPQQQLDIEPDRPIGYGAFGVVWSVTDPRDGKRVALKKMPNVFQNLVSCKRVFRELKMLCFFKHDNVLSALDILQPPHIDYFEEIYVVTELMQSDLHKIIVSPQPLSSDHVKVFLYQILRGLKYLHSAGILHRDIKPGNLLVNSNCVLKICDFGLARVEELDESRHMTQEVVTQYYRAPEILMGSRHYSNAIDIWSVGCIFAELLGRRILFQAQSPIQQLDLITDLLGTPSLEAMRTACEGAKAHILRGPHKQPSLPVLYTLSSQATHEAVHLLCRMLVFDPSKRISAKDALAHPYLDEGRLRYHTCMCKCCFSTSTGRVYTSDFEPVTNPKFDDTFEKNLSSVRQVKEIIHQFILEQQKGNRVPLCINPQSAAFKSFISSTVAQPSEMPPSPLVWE

[6] = target: T2, Ephrin type-B receptor 2 (Homo sapiens) (UniProt P29323); test: Selectivity interaction (Kinase panel (Invitrogen)) EUB0000639a EPHB2; details: at 200 nM
T2 sequence (whole entry): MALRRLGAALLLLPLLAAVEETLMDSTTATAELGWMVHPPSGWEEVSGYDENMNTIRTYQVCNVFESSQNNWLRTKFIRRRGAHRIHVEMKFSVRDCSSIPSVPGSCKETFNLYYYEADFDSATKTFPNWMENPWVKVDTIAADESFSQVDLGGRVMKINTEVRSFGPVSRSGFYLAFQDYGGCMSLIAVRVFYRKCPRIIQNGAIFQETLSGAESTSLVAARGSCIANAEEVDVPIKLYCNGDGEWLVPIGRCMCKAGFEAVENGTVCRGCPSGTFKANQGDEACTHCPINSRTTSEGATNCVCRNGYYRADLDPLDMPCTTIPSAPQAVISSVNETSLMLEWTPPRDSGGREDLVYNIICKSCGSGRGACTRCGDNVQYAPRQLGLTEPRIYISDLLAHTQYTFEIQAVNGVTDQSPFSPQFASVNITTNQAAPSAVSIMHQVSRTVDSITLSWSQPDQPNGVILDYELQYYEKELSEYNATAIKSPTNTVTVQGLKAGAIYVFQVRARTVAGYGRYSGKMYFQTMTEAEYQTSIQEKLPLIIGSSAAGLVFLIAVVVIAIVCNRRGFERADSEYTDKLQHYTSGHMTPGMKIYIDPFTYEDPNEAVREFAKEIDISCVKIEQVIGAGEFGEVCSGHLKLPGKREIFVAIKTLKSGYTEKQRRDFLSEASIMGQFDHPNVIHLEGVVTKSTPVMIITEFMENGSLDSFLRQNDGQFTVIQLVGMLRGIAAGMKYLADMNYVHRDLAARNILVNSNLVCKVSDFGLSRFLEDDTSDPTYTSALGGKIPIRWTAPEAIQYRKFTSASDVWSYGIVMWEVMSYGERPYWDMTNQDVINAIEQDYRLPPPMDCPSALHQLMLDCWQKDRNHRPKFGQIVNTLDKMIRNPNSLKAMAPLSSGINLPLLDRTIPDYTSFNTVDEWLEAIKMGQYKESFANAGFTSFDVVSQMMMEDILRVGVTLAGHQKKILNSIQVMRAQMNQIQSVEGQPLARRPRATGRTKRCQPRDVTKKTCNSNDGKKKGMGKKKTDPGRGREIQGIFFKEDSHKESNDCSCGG

[7] = target: Fibroblast growth factor receptor 4 (Homo sapiens, UniProt P22455); test: Selectivity interaction (Ambit KINOMEscan and KiNATiv profiling in Jurkat cells) EUB0000090b FGFR4; format: cell-based; details: at 1 µM
[8] = target: Death-associated protein kinase 3 (Homo sapiens) (UniProt O43293); test: Selectivity interaction (KinomeScan (DiscoverX)) EUB0000045b DAPK3
[9] = target: Protein arginine N-methyltransferase 8 (Homo sapiens, UniProt Q9NR22); details: at 1 µM
Chain of Protein arginine N-methyltransferase 8 (Q9NR22 2-394 limits assumed): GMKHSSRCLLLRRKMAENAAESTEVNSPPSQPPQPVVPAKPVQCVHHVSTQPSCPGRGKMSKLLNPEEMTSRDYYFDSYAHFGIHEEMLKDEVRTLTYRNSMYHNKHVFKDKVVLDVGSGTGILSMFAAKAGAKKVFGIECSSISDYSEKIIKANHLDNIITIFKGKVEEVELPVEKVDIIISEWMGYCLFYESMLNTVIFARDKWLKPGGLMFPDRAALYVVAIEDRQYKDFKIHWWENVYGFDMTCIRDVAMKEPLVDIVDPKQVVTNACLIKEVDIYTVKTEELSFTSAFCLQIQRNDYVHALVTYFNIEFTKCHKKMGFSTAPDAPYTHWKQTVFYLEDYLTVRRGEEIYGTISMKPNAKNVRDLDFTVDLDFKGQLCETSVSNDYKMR

Chain of Death-associated protein kinase 3 (Homo sapiens) (O43293 whole entry, looked up): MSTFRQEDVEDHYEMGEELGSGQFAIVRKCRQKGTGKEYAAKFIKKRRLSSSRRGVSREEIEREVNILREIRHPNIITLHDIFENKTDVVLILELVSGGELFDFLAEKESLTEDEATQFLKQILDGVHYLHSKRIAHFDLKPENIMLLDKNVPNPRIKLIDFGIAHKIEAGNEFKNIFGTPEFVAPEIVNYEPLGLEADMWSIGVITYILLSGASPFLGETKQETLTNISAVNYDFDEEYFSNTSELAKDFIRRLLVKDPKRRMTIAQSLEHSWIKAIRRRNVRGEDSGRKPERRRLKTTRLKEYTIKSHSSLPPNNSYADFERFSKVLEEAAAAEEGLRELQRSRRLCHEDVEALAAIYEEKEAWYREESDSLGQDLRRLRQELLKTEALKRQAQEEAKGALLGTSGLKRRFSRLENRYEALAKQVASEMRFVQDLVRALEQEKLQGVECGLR
Chain of Fibroblast growth factor receptor 4 (P22455 22-802 limits assumed): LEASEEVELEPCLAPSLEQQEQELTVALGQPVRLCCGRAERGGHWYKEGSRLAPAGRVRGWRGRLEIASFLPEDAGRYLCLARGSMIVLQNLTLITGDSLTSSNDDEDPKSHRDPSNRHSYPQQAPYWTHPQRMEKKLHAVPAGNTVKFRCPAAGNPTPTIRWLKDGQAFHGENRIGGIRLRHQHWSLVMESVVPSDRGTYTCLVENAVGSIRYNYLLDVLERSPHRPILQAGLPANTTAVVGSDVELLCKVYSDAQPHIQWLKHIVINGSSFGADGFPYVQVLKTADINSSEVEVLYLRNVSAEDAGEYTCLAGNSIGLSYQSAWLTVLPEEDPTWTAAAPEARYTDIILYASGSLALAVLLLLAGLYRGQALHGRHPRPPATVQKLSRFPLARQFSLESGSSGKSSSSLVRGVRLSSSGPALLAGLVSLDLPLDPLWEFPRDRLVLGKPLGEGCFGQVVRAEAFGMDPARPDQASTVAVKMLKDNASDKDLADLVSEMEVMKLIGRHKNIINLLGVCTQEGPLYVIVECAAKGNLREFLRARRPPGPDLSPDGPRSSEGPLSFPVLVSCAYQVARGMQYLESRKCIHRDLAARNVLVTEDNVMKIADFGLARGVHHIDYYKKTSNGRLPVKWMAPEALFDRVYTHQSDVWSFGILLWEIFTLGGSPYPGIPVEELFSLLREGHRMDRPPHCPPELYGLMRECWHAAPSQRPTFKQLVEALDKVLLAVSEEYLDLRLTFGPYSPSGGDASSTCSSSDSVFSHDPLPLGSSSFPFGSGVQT
Chain of ALK tyrosine kinase receptor (Homo sapiens), Q9UM73 [F1174L] (Q9UM73 whole entry F1174L): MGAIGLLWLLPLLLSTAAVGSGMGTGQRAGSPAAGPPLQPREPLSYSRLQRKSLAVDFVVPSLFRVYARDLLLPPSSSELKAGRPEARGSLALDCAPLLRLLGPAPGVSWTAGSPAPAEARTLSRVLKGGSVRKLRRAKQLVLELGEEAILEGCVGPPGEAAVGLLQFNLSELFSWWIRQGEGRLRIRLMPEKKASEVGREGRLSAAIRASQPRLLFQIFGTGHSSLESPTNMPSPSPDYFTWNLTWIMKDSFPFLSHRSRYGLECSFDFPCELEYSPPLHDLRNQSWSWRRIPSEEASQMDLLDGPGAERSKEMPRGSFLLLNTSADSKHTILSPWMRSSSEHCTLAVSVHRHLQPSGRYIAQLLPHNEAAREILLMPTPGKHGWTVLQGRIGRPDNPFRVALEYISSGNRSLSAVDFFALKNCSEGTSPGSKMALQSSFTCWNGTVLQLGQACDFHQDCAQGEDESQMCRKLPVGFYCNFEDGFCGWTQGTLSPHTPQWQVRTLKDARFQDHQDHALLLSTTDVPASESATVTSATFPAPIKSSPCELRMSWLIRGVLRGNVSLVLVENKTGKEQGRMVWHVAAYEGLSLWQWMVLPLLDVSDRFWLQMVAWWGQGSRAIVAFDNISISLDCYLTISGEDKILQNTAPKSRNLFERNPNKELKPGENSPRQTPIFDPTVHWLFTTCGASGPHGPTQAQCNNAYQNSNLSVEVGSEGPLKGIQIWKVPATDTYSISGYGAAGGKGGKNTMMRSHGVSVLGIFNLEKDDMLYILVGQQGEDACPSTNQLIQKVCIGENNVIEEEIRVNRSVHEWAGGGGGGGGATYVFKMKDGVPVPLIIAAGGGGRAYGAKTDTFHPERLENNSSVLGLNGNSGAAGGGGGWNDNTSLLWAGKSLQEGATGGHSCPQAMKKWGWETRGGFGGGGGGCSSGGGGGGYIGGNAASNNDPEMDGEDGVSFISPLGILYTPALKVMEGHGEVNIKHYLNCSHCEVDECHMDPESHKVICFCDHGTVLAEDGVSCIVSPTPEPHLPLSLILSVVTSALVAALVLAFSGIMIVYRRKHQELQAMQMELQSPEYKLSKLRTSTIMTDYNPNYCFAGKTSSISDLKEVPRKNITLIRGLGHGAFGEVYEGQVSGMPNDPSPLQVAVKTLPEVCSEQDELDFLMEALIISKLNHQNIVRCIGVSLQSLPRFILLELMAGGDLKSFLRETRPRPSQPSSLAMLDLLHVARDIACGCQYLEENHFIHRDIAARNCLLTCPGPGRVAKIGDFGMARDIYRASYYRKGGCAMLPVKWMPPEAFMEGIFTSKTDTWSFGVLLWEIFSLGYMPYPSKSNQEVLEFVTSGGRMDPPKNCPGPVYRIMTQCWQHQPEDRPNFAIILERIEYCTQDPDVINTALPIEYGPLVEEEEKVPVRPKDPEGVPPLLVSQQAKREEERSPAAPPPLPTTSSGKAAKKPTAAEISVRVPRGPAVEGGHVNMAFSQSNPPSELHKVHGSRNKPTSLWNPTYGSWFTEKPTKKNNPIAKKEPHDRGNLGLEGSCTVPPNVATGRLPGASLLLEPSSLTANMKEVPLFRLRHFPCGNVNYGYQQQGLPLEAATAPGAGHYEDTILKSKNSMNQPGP
Chain of ALK tyrosine kinase receptor (Homo sapiens), Q9UM73 [R1275Q] (Q9UM73 whole entry R1275Q): as the sequence (Q9UM73 whole entry F1174L) above, with L1174F, R1275Q counted along it
Chain of ALK tyrosine kinase receptor (Homo sapiens), Q9UM73 [L1196M] (Q9UM73 whole entry L1196M, looked up): as the sequence (Q9UM73 whole entry F1174L) above, with L1174F, L1196M counted along it
Chain of ALK tyrosine kinase receptor (Homo sapiens), Q9UM73 [C1156Y] (Q9UM73 whole entry C1156Y, looked up): as the sequence (Q9UM73 whole entry F1174L) above, with C1156Y, L1174F counted along it

Compound: Cc1ccc(-c2ccc3c(ccc4sc5c(c43)NC[C@@H](C)NC5=O)n2)cn1
% of inhibition [5]: 25%

Compound: CN(C)C/C=C/C(=O)Nc1ccc(C(=O)N2CCCC(Nc3ncc(Cl)c(-c4c[nH]c5ccccc45)n3)C2)cc1 (stereo not given)
% of control [7]: 86%

Compound: C=CC(=O)Nc1cc(-n2c(=O)ccc3cnc4ccc(-c5ccc(NS(C)(=O)=O)cc5)cc4c32)ccc1C
% of control ([8]; at 1 µM): 100%
% of control ([8]; at 10 µM): 60%

The remaining lines, values ahead:

% of inhibition [1]: -19.4%
% of inhibition [2]: -41.1%
% of inhibition [3]: -25.5%
% of inhibition [4]: -8.74%
Compound: Cn1cc(-n2cnc3c(NCc4nc5cc(Cl)c(Cl)cc5[nH]4)nc(N4CCOCC4)nc32)cn1

% of inhibition [6]: 0.413%
Compound: CC[C@@H]1[C@H](F)C(=O)N[C@@H]1COc1nccc2cc(C(N)=O)c(OC)cc12 [ZIMLOVISERTIB]

% activity [9]: > 90%
Compound: CNCCN1CCC(c2cc(CN(C)C(=O)c3cccc(Oc4ccccc4)c3)ccn2)CC1
